Patent US20250270173A1, “PYRIDINE DERIVATIVES FOR TREATING PSYCHIATRIC DISORDERS” (GILGAMESH PHARMACEUTICALS, INC., priority 2022, published 2025)
“And” between values parts separate entries of the source, which are not always exact repeats. Equal values may be shown once. Read-outs that look alike come from different tables or passages of the source.

Key:
5-HT2B receptor = 5-HT2B receptor (Homo sapiens (Human), UniProt P41595); experiment: FLIPR Ca2+ flux functional assay at 5-HT2B (HEK293); conditions: for 5-HT2B % Act @ Max Conc.: HEK293, at max concentration
human 5-HT2C receptor = human 5-HT2C receptor (Homo sapiens (Human), UniProt P28335); experiment: FLIPR Ca2+ flux functional assay at 5-HT2C (Eurofins DiscoverX); format: cell-based; conditions: Ca2+ flux, human 5-HT2C; for 5-HT2C % Act @ Max Conc.: at max concentration; for EC50: read-out: 5-HT2C EC50
Protocol: Functional Assays at 5-HT2C Receptors. […] Probenecid was prepared fresh. Cells were loaded with dye prior to testing and incubated at 37° C. for 30-60 minutes. After dye loading, cells were removed from the incubator and 10 μL HBSS/20 mM Hepes was added. 3× vehicle was included in the assay buffer. Cells were incubated for 30 mins at room temperature in the dark to equilibrate plate temperature. Intermediate dilution of sample stocks was performed to generate 4× sample in assay buffer. Compound agonist activity was measured on a FLIPR Tetra (MDS). Calcium mobilization was monitored for 2 minutes and 10 μL 4× sample in HBSS/20 mM Hepes was added to the cells 5 seconds into the assay.

5-HT2A receptor [1] = target: T1, 5-HT2A receptor (Homo sapiens (Human), UniProt P28223); experiment: FLIPR Ca2+ flux functional assay at 5-HT2A (HEK293); conditions: for 5-HT2A % Act @ Max Conc.: HEK293, at max concentration
5-HT1A receptor = 5-HT1A receptor (Homo sapiens (Human), UniProt P08908); experiment: FLIPR Ca2+ flux functional assay at 5-HT1A (CHO cells); conditions: for 5-HT1A % Act @ Max Conc.: at max concentration
5-HT2A receptor [2] = target: T1, 5-HT2A receptor; experiment: 5-HT2A receptor radioligand binding with [3H]ketanserin; conditions: read-out: Ki at 5-HT2A Receptor (nM) ([3H]ketanserin); HEK293 stable cell line, 1 nM [3H]ketanserin, 1 h, 25 °C
C57BL/6 mice [3] = experiment: Automated (video tracking) head twitch response (HTR) assay in mice; format: in vivo; conditions: SC; for Most Efficacious Dose; mg/kg: dose giving the most HTR; for ED50: 20 min recording
Protocol: Disclosed compounds were tested for their ability to induce a head twitch response (HTR) in mice using an automated video tracking procedure, with the results summarized in Table 5. […] The phenyl Compound 44 was substantially more efficacious at inducing HTR than its pyridine counterpart Compound 29, in agreement with the generally lower maximal efficacy of the disclosed pyridine compounds for signaling through 5-HT2A receptors.
(§1) Animals. Adult male C57BL/6 mice aged 8-10 weeks (body weight 20-25 g) were used in these experiments. Animals were housed under controlled temperatures and 12-hour light/dark cycles (lights on between 07:00-19:00 h), with ad libitum food and water. The protocol was approved by the Institutional Animal Care and Use Committee at the study site. This study was carried out in strict accordance with the recommendations in the Guide for the Care and Use of Laboratory Animals of the National Institutes of Health. All efforts were made to minimize suffering.
Drugs and Drug Administration. […] was commercially obtained. Disclosed compounds were synthesized as described above. They were administered subcutaneously (SC) dissolved in saline (or saline acidified with 1-2 molar equivalents HCl to form the salt in situ for freebase compounds) at a volume of 10 mL/kg. Five doses were tested, with N=5-8 animals/group. Doses were calculated on the basis of the freebase, except for DOI, which was calculated based on the HCl salt.
Procedure. Mice were administered one dose of the drug and immediately placed into a small open field for behavioral observation. High-speed video of animals' behavior was captured continuously for 20 min. Video recordings were imported into an image processing software, which detects multiple points of interest on each animal's body, including the left and right ear. HTR events were defined as periodic deviations of ear locations from temporally averaged ear locations. Predefined thresholds for magnitude and frequency of location deviations were used to filter […] events from random head movements. The method was validated by comparing detected events with manual (human) observations and found to have an accuracy >95%. The total number of HTR events counted during the 20-min recording were determined for each animal at each dose.
(§2) Statistical Analysis. Analysis was performed using GraphPad Prism 9. Dose-response curves were fit via non-linear regression using the Gaussian 2020 function in Prism in order to determine the ED50 and Emax for each compound.

C57BL/6 mice [4] = experiment: Manual head twitch response (HTR) assay in mice; format: in vivo; conditions: SC; for ED50: 20 min observation
Protocol: Agonists of the 5-HT2A receptor are well known to induce this effect in rodents and the potency of this HTR is correlated with hallucinogenic potency in humans.
as §1
Drugs and Drug administration. DOI was commercially obtained. All other compounds were synthesized as described above. All drugs were administered subcutaneously (SC) dissolved in saline vehicle (or saline acidified with 1-2 molar equivalents HCl to form the salt in situ for freebase compounds) and at a volume of 10 mL/kg. Drugs were administered at 4 or 5 doses per compound, using n=6 animals/group. Doses were calculated on the basis of the freebase form, except for DOT, which was calculated based on the HCl salt.
Procedure. Mice were administered one dose of the drug (or vehicle) SC and immediately placed into a small open field for behavioral observation. Animals were observed continuously for 20 mins and the number of head twitches (HTs) were counted by an observer blind to the treatment condition.
as §2

[5] = read-out: 5-HT2B EC50, Ca2+ flux, HEK293
[6] = Mus musculus, 20 min, read-out: ED50
[7] = read-out: 5-HT2A EC50, Ca2+ flux, HEK293
[8] = read-out: 5-HT1A EC50, Ca2+ flux, CHO cells

Chain of human 5-HT2C receptor (P28335 whole entry, looked up): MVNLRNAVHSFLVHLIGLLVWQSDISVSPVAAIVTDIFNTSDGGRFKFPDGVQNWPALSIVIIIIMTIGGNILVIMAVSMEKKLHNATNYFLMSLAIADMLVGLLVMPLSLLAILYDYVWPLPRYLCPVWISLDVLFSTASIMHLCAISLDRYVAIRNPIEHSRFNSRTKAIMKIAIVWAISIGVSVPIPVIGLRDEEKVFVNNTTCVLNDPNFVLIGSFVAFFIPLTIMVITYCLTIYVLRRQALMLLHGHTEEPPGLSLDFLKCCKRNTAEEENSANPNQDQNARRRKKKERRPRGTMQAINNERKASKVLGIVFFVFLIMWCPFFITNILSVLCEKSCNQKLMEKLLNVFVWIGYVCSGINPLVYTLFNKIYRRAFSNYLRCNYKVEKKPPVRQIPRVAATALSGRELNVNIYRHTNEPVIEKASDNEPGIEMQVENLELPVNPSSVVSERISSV
Chain of 5-HT2B receptor (P41595 whole entry, looked up): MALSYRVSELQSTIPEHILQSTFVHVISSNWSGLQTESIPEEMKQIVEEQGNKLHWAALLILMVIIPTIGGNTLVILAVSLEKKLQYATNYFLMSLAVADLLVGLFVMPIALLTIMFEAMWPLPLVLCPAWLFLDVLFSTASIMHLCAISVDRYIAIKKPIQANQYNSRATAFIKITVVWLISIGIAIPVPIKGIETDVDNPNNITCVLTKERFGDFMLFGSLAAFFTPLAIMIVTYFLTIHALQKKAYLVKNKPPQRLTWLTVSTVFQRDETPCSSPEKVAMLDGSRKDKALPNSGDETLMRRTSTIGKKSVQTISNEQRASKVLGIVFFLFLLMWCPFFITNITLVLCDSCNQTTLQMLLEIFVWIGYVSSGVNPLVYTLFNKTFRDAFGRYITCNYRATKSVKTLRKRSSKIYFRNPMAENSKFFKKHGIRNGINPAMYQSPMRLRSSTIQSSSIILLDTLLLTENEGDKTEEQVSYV

SMILES | EC50 (5-HT2B receptor) | 5-HT2B % Act @ Max Conc. (5-HT2B receptor; Ca2+ flux) | 5-HT2C % Act @ Max Conc. (human 5-HT2C receptor) | EC50 (human 5-HT2C receptor) | EC50 (5-HT2A receptor [1]) | 5-HT2A % Act @ Max Conc. (5-HT2A receptor [1]; Ca2+ flux) | EC50 (5-HT1A receptor) | 5-HT1A % Act @ Max Conc. (5-HT1A receptor; Ca2+ flux, CHO cells) | Ki (5-HT2A receptor [2]) | # HTR/20 min at Most Efficacious Dose (C57BL/6 mice [3]) | Most Efficacious Dose; mg/kg (C57BL/6 mice [3]) | EC50 (5-HT2B receptor; [5]) | Emax (HTR counts/20 min) (C57BL/6 mice [3]) | ED50 (C57BL/6 mice [3]) | Emax (HTR counts/20 min) (C57BL/6 mice [4]) | ED50 (C57BL/6 mice [4]) | ED50 (C57BL/6 mice [3]; [6]) | EC50 (5-HT2A receptor [1]; [7]) | EC50 (5-HT1A receptor; [8]) | ED50 (C57BL/6 mice [4]; [6])
COc1cc(CCCCF)c(OC)nc1CCN [Compound 32, 2-(5-(4-fluorobutyl)-3,6-dimethoxypyridin-2-yl)ethan-1-amine] | > 10000 nM | −0.69% | 99.77% | 22.8 nM | 20.8 nM | 81.86% | > 100000 nM | 0.5% | 103 nM | – | – | – | – | – | – | – | – | – | – | –
CCCCCCc1cc(OC)c(CC(C)N)nc1OC (stereo not shown) [Compound 38, 1-(5-hexyl-3,6-dimethoxypyridin-2-yl)propan-2-amine] | > 10000 nM | 4.76% | 79.49% | 159 nM | 11.4 nM | 83.97% | 56900 nM | 123.88% | 3.1 nM | – | – | – | – | – | – | – | – | – | – | –
CCC(N)Cc1nc(OC)c(Cl)cc1OC (stereo not shown) [Compound 18, 1-(5-chloro-3,6-dimethoxypyridin-2-yl)butan-2-amine] | > 10000 nM | 2.75% | 36.76% | 2250 nM | 370 nM | 70.92% | > 100000 nM | 1.33% | 1200 nM | 33.12 HTR/20 min | (10) mg/kg | – | – | – | – | – | – | – | – | –
COc1cc(CC(C)N)c(OC)cc1I (stereo not shown) [DOI, reference compound] | – | 86.3% | 92.6% | 0.818 nM | – | 106% | – | −2.47% | – | 81.5 HTR/20 min | (3.2) mg/kg | 4.88 nM | 82.02 HTR counts/20 min | 0.531 mg/kg | 35.7 HTR counts/20 min | 0.428 mg/kg | – | – | – | –
CCCCc1cc(OC)c(CCN)nc1OC [Compound 31, 2-(5-butyl-3,6-dimethoxypyridin-2-yl)ethan-1-amine] | > 10000 nM | 7.29% | – | – | 7.88 nM | 90.63% | > 100000 nM | 21.32% | 19.7 nM | 43.38 HTR/20 min | (3.2) mg/kg | – | 43.42 HTR counts/20 min | – | – | – | 1.29 mg/kg | – | – | –
COc1cc(CCNCc2ccccc2OC)c(OC)cc1C [Compound 25D-NBOMe, 25D-NBOMe, reference compound] | – | 43.3% | 91.5% | < 0.508 nM | – | 97.5% | – | −4.43% | 2.52 nM | – | – | 1.27 nM | – | – | – | – | – | 0.251 nM | > 10000 nM | –
CCCCCc1cc(OC)c(CC(N)CC)nc1OC (stereo not shown) [Compound 1, 1-(3,6-dimethoxy-5-pentylpyridin-2-yl)butan-2-amine] | – | 0.18% | 44.38% | 5470 nM | 115 nM | 25% and 25.3% | 20200 nM | 188% | 40 nM | – | – | – | – | – | 18.78 HTR counts/20 min | – | – | – | – | 0.897 mg/kg
CCCCCc1cc(OC)c(CCN)nc1OC [Compound 7, 2-(3,6-dimethoxy-5-pentylpyridin-2-yl)ethan-1-amine] | > 10000 nM | 11.56% | 92.53% | 16.2 nM | 20 nM | 82.88% | 51900 nM | 61.95% | 6.32 nM | 23.25 HTR/20 min | (1) mg/kg | – | 24.61 HTR counts/20 min | – | – | – | 4.88 mg/kg | – | – | –
COc1cc(C(F)(F)F)c(OC)cc1CCN [Compound 2C-TFM, 2C-TFM, reference compound] | – | 82.0% | 88.2% | 0.593 nM | – | 81.5% | – | −0.647% | 15.8 nM | – | – | 16.3 nM | – | – | – | – | – | 1.05 nM | > 10000 nM | –
CCCc1cc(OC)c(CCN)nc1OC [Compound 36, 2-(3,6-dimethoxy-5-propylpyridin-2-yl)ethan-1-amine] | 184 nM | 21.53% | – | – | 4.14 nM | 88.19% | > 100000 nM | 3.03% | 35.4 nM | 48.12 HTR/20 min | (10) mg/kg | – | 48.79 HTR counts/20 min | – | – | – | 0.972 mg/kg | – | – | –
COc1cc(CCCCCC(F)(F)F)c(OC)nc1CCN [Compound 30, 2-(3,6-dimethoxy-5-(6,6,6-trifluorohexyl)pyridin-2-yl)ethan-1-amine] | 1670 nM | 23.14% | – | – | 65 nM | 73.21% | 91600 nM | 55.61% | 6.01 nM | 17.5 HTR/20 min | (3.2) mg/kg | – | 16.80 HTR counts/20 min | – | – | – | 5.87 mg/kg | – | – | –
